The source of these data is patent publication US20160303095A1, “METHODS OF TREATING HEPATITIS B VIRUS” (Gilead Sciences, Inc., priority 2015, published 2016).

One may read the EC50 as the midpoint of the concentration-response curve.

Experiment [1] concerns HBV. Briefly: Determination of HBV viral RNA by RT-qPCR in PHH. The format is cell-based. As to conditions: Hepatitis B virus, read-out: HBV RNA EC50. (Real-time PCR tracks product formation cycle by cycle.)
Description: HBV antiviral activity was assessed in primary human hepatocytes (PHH) in a 96-well format. PHH were (Life Technologies, Chicago, 11) plated on collagen coated tissue culture plates using Plating Media containing William's Medium E supplemented with 1% Penicillin/Streptomycin, 4 μg/mL human recombinant insulin, 2 mM glutamax, 15 mM Hepes, 1 μM dexamethasone and 5% fetal bovine serum (Life Technologies, Cat#A12176-01 Life Technologies, Chicago, Ill.). After a 4-hour incubation at 37° C., cells were switched to Maintenance Media (Cat#CM4000-A15564 Life Technologies, Chicago, Ill.) containing William's Medium E supplemented with 0.5% Penicillin/Streptomycin, 6.25 μg/mL human recombinant insulin, 6.25 μg/mL human transferrin, 6.25 ng/mL selenous acid, 1.25 mg/mL bovine serum albumin, 5.35 μg/mL linoleic acid, 2 mM glutamax, 15 mM Hepes, 0.1 μM dexamethasone, 2% fetal bovine serum, and 2% DMSO (Cat#D2650 Sigma, St. Louis, Mo.). On the next day, cells were infected with approximately 500 genome equivalent of selected HBV clinical isolates (21P (GTA), 32P (GTA), 91P (GTA), AD38 (GTD), 65P (GTD) or 30P (GTE); ProteoGenex, Culver City, Calif.) per cell in Maintenance Media supplemented with 4% PEG 8000 (Cat#V3011 Promega, Madison, Wis.). After 24 hour incubation cells were washed three times with William's Medium E and fed with fresh Maintenance Media. Small molecule inhibitors targeting KDMs were serially diluted in Maintenance Media and added to cells at 3 days post infection (p.i.). Media with compounds was replenished every 2-3 days. Media collected on various days was used for determination of HBsAg and HBeAg levels by MSD ELISA, and HBV RNA by qPCR. All data were converted into percentages of the untreated control and non-linear regression was performed to calculate EC50 or CC50 values.
Following the Alamar Blue measurement, media was removed and total RNA from the cells was isolated using the RNeasy 96 Kit (Cat#74182 Qiagen, Venlo, Netherlands). […] GAPDH mRNA levels were also measured by RT-qPCR to control for differences in cell number, toxicity, and RNA purification efficiency (Cat#4390849 Life Technologies, Chicago Ill.). HBV mRNA Ct values were normalized using their cognate GAPDH mRNA Ct values by the delta-delta-Ct calculation and then expressed as a percentage of the non-targeting scrambled control.
Experiment [2] deals with HBV. Briefly: Effect of the withdrawal of KDM inhibitors on HBV rebound (HBsAg, HBeAg) in PHH. The class given is cell-based, Hepatitis B Virus. As to conditions: for suppression of viral transcription after withdrawal: up to another 14 days after withdrawal; for HBeAg / HBsAg: PHH donor 8181, virus P21, compound removed after two weeks; for rebound of HBsAg or HBeAg secretion into media after compound withdrawal: PHH donor 8181, 21p virus, 14 days treatment, then 14 days without compound. As for the experimental part:
PHH from donor 8181 infected with 21p virus was treated with serially diluted Examples 8 or 7 for 14 days. Afterwards the compound was removed and cell cultures were replenished regularly with fresh medium but without compound for another 14 days. The levels of HBsAg and HBeAg secretion were measured during the course of the experiment to monitor the effects of compound on virus replication. No rebound of HBsAg or HBeAg secretion into media was observed after the compound withdrawal.
PHH from donor 8181 were infected with patient viruses P21 for three days before serially diluted Example 8 was added to the cells. After two weeks of the treatment the compound was removed and cells were followed for another 14 days. Activity of the compound was monitored during the course of the experiment using HBsAg and HBeAg readout. The medium with/without compound was replenished every 3-4 days. Day 0—compound was added to the infected cells.
PHH donor 8181 was infected with patient viruses P21 for three days before serially diluted Example 7 was added to the cells. After two weeks of the treatment the compound was removed and cells were followed for another 14 days. Activity of the compound was monitored during the course of the experiment using HBsAg and HBeAg readout. The medium with/without compound was replenished every 3-4 days. Day 0—compound was added to the infected cells.

The test system of another experiment is H3K4me3 mark. Briefly: Western blot detection of H3K4me3 in HBV-infected PHHs. The format is cell-based, human. As to conditions: for IC50: Homo sapiens; for chromatin H3K4Me3 mark: PHH from three different donors. As for the experimental part: One million primary human hepatocytes (PHH) cells from three different donors were plated in 6 well collagen coated tissue culture plates in 2.5 ml Plating Media containing William's Medium E supplemented with 1% Penicillin/Streptomycin, 4 μg/mL human recombinant insulin, 2 mM glutamax, 15 mM Hepes, 1 μM dexamethasone and 5% fetal bovine serum (Life Technologies, Cat#A12176-01 Life Technologies, Chicago, Ill.) and incubated for 4-hours at 37° C. Following this incubation the media was changed to Maintenance Media (Cat#CM4000-A15564 Life Technologies, Chicago, Ill.) containing William's Medium E supplemented with 0.5% Penicillin/Streptomycin, 6.25 μg/mL human recombinant insulin, 6.25 μg/mL human transferrin, 6.25 ng/mL selenous acid, 1.25 mg/mL bovine serum albumin, 5.35 μg/mL linoleic acid, 2 mM glutamax, 15 mM Hepes, 0.1 μM dexamethasone, 2% fetal bovine serum, and 2% DMSO (Cat#D2650 Sigma, St. Louis, Mo.). The next day, cells were infected with approximately 500 genome equivalents of HBV clinical isolates 21P (GTA) or AD38 (GTD) per cell in Maintenance Media supplemented with 4% PEG 8000. Small molecule inhibitors targeting KDMs were serially diluted in Maintenance Media and added to cells at 3 days post infection (p.i.). Media with compounds was replenished every 2-3 days. Cells were harvested on day 14 p.i. by scraping the monolayer into ice-cold PBS supplemented with 5 mM Sodium Butyrate and concentrated by centrifugation at 1000×g for 5 minutes at 4° C. The cell pellets were washed twice by re-suspension in PBS and concentrated by centrifugation. The cells were lysed by suspension in Triton Extraction Buffer (TEB: PBS containing 0.5% Triton X 100 (v/v), 2 mM phenylmethylsulfonyl fluoride (PMSF), 0.02% (w/v) NaN3) at a cell density of 10^7 cells per ml and incubated on ice for 10 minutes with gentle stirring. Following centrifugation at 500 g for 10 minutes at 4° C., the supernatants were removed and the pellets were washed in 5×10^7 cells per ml TEB buffer and centrifuged as before. The pellets were re-suspended in 0.2N HCl at a cell density of 4×10^7 cells per ml and the histones were acid extracted overnight at 4° C. Samples were centrifuged at 500 g for 10 minutes at 4° C., the supematants were removed and protein content was determined using the Bradford assay. Histones were separated on a 4-20% gradient SDS gel (Mini protean TGX precast gels from BioRad), and blotted to a Hybond C-extra nitrocellulose membrane (Amersham Biosciences, RPN303E). H3K4me3 and total H3 were detected with a mixture of 1° antibodies (Cat#05-745R Millipore and Cat#14269S Cell Signaling) diluted 1:1000 in 5% skimmed milk powder in PBS containing 0.1% Tween. The western blot was washed 3 times in PBS containing 0.1% tween and incubated with 2° antibodies (Donkey anti-Mouse IRDye at 680LT Cat#926-68022 Licor Odyssey; Donkey anti-Rabbit IRDye at 800CW Cat#96-32213; Licor Odyssey) diluted 1:10000 in 5% skimmed milk powder in PBS containing 0.1% tween 20 for 1 h. Detection of infrared fluorescence was performed on Infrared Fluorescence Imaging System LI-COR. Concentration dependence of H3K4me3/H3 signal was used to calculate IC50 value for induction of H3K4 trimethylation.

The mark [3] stands for this setting: read-out: IC50 (concentration causing a 50% increase in the H3K4me3 mark), Virus 21P (GTA), PHH 4239.
Where [4] appears, read: read-out: IC50 (concentration causing a 50% increase in the H3K4me3 mark), Virus 21P (GTA), PHH 8130.
[5] abbreviates: read-out: IC50 (concentration causing a 50% increase in the H3K4me3 mark), Virus 21P (GTA), PHH 8181.
[6] abbreviates: read-out: IC50 (concentration causing a 50% increase in the H3K4me3 mark), Virus AD38 (GTD), PHH 4239.
The mark [7] stands for this setting: read-out: IC50 (concentration causing a 50% increase in the H3K4me3 mark), Virus AD38 (GTD), PHH 8130.
Where [8] appears, read: read-out: IC50 (concentration causing a 50% increase in the H3K4me3 mark), Virus AD38 (GTD), PHH 8181.

The structures appear in SMILES notation. Where two headings read alike, the source gives them in different places.

For the compound `Nc1c(C(=O)O)ccnc1C(=O)O` [Example 7, reference compound], the EC50 with HBV [1] (HBV-infected PHH) stood at 0.224 µM. Also, in the experiment on HBV [2] (2 μM), the “suppression of viral transcription after withdrawal” value is “prolonged suppression of viral transcription”. The HBeAg in the experiment on HBV [2] (2000 nM, Day 0) stood at 0 ng/mL; with HBV [2] (2000 nM, Day 5) it was 9.2 ng/mL; in the experiment on HBV [2] (2000 nM, Day 10), 25.1 ng/mL; in the experiment on HBV [2] (2000 nM, Day 14), 13.7 ng/mL; in the experiment on HBV [2] (2000 nM, Day 19), 7.0 ng/mL; in the experiment on HBV [2] (2000 nM, Day 24), 5.3 ng/mL. For the same compound, the HBeAg with HBV [2] (2000 nM, Day 28) stood at 5.4 ng/mL. The HBsAg with HBV [2] (2000 nM, Day 0) was 0 ng/mL; with HBV [2] (2000 nM, Day 5), 20.6 ng/mL; in the experiment on HBV [2] (2000 nM, Day 10) it was 149.2 ng/mL; with HBV [2] (2000 nM, Day 14) it was 68.6 ng/mL; in the experiment on HBV [2] (2000 nM, Day 19) it was 26.8 ng/mL; with HBV [2] (2000 nM, Day 24) it was 11.7 ng/mL. This compound also came in with an HBsAg with HBV [2] (2000 nM, Day 28) of 19.1 ng/mL. Also, in the experiment on HBV [2], the “rebound of HBsAg or HBeAg secretion into media after compound withdrawal” value is listed as “No rebound”.
Regarding `CCOC(=O)c1ccnc(CNCC(=O)N(CC)CCN(C)C)c1` [Example 8], the IC50 was found to be 0.03 µM in the experiment with H3K4me3 mark (setting [3]); 0.001 µM in the experiment with H3K4me3 mark (setting [4]); 0.07 µM in the experiment on H3K4me3 mark (setting [5]); 0.03 µM with H3K4me3 mark (setting [6]); 0.003 µM with H3K4me3 mark (setting [7]); 0.05 µM with H3K4me3 mark (setting [8]). In addition, the “chromatin H3K4Me3 mark” value in the experiment on H3K4me3 mark is listed as “increase in the chromatin H3K4Me3 mark in a dose-dependent manner”. The EC50 in the experiment on HBV [1] came to 0.1 µM. Besides, the HBeAg in the experiment with HBV [2] (20 nM, Day 0) is on record as 0 ng/mL; in the experiment with HBV [2] (20 nM, Day 5), 5.3 ng/mL; in the experiment on HBV [2] (20 nM, Day 10), 31 ng/mL; in the experiment on HBV [2] (20 nM, Day 14), 13 ng/mL; in the experiment with HBV [2] (20 nM, Day 19), 3 ng/mL; with HBV [2] (20 nM, Day 24), 2.3 ng/mL. For the same compound, the HBeAg with HBV [2] (20 nM, Day 28) is given as 1.9 ng/mL. Moreover, the HBsAg stood at 0 ng/mL in the experiment with HBV [2] (20 nM, Day 0); 13.8 ng/mL in the experiment on HBV [2] (20 nM, Day 5); 147 ng/mL with HBV [2] (20 nM, Day 10); 30 ng/mL in the experiment on HBV [2] (20 nM, Day 14); 9 ng/mL in the experiment with HBV [2] (20 nM, Day 19); 4.4 ng/mL in the experiment with HBV [2] (20 nM, Day 24). In addition, in the experiment with HBV [2] (20 nM, Day 28), the HBsAg was 5.26 ng/mL. Besides, the “suppression of viral transcription after withdrawal” value in the experiment on HBV [2] (0.08 μM) is reported as “prolonged suppression of viral transcription”. Besides, the “rebound of HBsAg or HBeAg secretion into media after compound withdrawal” value with HBV [2] is reported as “No rebound”.
In the case of `CCN(CCN(C)C)C(=O)CNCc1cc(C(=O)O)ccn1` [Example 9], the IC50 stood at 0.06 µM in the experiment with H3K4me3 mark (setting [3]); 0.13 µM with H3K4me3 mark (setting [4]); 0.1 µM in the experiment on H3K4me3 mark (setting [5]); 0.01 µM in the experiment with H3K4me3 mark (setting [6]); 0.13 µM in the experiment on H3K4me3 mark (setting [7]); 0.13 µM in the experiment on H3K4me3 mark (setting [8]). Also, in the experiment with H3K4me3 mark, the “chromatin H3K4Me3 mark” value is reported as “increase in the chromatin H3K4Me3 mark in a dose-dependent manner”.
